Among the test systems are A549 NSCLC; BT-549 breast; CAKI-1 renal; HCT-15 colon; HOP-62 NSCLC; LOX IMVI melanoma; OVCAR-3 ovarian; RPMI-8226 leukemia; UACC-62 melanoma.
What all share (experiment): inhibition of tumour cell growth, NCI panel, 48 h

“And” between values parts separate entries of the source, which are not always exact repeats. Identical values can stand only once.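 Method: 48-hour compound exposure of cells in 96-well plates, five concentrations, linear interpolation of endpoints. At the GI50, growth is halved. TGI denotes the concentration required for complete inhibition of growth.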 Where only a bound is given, the exact number is not on record here.

`N#Cc1ccccc1NC(=O)/C(=N\NC(=O)c1ccncc1)C(c1cnc2ccc([N+](=O)[O-])cc2n1)[N+](=O)[O-]` (stereo not given): the TGI in the experiment on A549 NSCLC, in the experiment with BT-549 breast, in the experiment with CAKI-1 renal, in the experiment with HCT-15 colon, with HOP-62 NSCLC and in the experiment on LOX IMVI melanoma was more than 100 µM in each case. Also, the TGI with OVCAR-3 ovarian, in the experiment on RPMI-8226 leukemia and with UACC-62 melanoma was more than 100 µM in each case.
For `Nc1ccccc1/C=C\c1ccccc1`, the TGI with A549 NSCLC, in the experiment on BT-549 breast, in the experiment on HCT-15 colon, in the experiment on HOP-62 NSCLC, with OVCAR-3 ovarian and in the experiment with RPMI-8226 leukemia was more than 100 µM in each case. The TGI in the experiment with UACC-62 melanoma is more than 100 µM.
Take `C/C=C(\C)C(=O)N[C@H]1[C@@H](OC(C)=O)C[C@]2(C)C3CC[C@@]4(C)C(CC[C@@H]4C(C)N(C)C)C3CCC2[C@H]1O` (stereo not given in full): the GI50 in the experiment with A549 NSCLC was 5.41 µM; in the experiment with BT-549 breast, 4.81 µM; with CAKI-1 renal, 3.2 µM; with HCT-15 colon, 1.46 µM; with HOP-62 NSCLC it was 3.42 µM; in the experiment on LOX IMVI melanoma, 1.78 µM. Also, the GI50 with OVCAR-3 ovarian is 5.56 µM; in the experiment with UACC-62 melanoma, 1.91 µM. The TGI turned out to be 20.3 µM in the experiment with A549 NSCLC; 21.6 µM in the experiment on BT-549 breast; 14 µM in the experiment on CAKI-1 renal; 4.22 µM in the experiment with HCT-15 colon; 9.29 µM in the experiment on HOP-62 NSCLC; 4.02 µM in the experiment with LOX IMVI melanoma. In addition, the TGI in the experiment with OVCAR-3 ovarian was 19.1 µM; with UACC-62 melanoma, 4.13 µM.
With `CCOc1cc2c(cnc3c4cc(OC)c(OC)cc4ccc23)cc1OC`, the TGI in the experiment with A549 NSCLC, in the experiment on CAKI-1 renal, with HCT-15 colon, with HOP-62 NSCLC, with OVCAR-3 ovarian and with RPMI-8226 leukemia was more than 100 µM throughout. In the experiment on UACC-62 melanoma, this compound came in with a TGI of more than 100 µM.
Take `CC(=O)C1CC2(c3ccc(C)cc3)C(c3ccc(C)cc3)=C(c3ccc(C)cc3)C1(c1ccc(C)cc1)S2=O` (stereo not given): the GI50 in the experiment with A549 NSCLC, in the experiment on BT-549 breast, in the experiment with CAKI-1 renal, in the experiment with HCT-15 colon, in the experiment on HOP-62 NSCLC and with LOX IMVI melanoma was more than 100 µM throughout. For the same compound, the GI50 in the experiment with OVCAR-3 ovarian was more than 100 µM; with RPMI-8226 leukemia, 31.1 µM; in the experiment on UACC-62 melanoma it was more than 100 µM. Further, the TGI in the experiment with A549 NSCLC, in the experiment on BT-549 breast, in the experiment on CAKI-1 renal, in the experiment with HCT-15 colon, with HOP-62 NSCLC and with LOX IMVI melanoma was more than 100 µM throughout. The TGI in the experiment with OVCAR-3 ovarian, with RPMI-8226 leukemia and with UACC-62 melanoma was more than 100 µM in each case.
For `C=C1C(=O)O[C@@H]2C1C[C@@H](O)/C(C)=C/C/C=C(\C)CCC[C@H](C)[C@H]2OC(C)=O` (stereo not given in full), the GI50 was 35.8 µM with A549 NSCLC; 20 µM in the experiment on BT-549 breast; 32.8 µM with CAKI-1 renal; 22.2 µM in the experiment with HCT-15 colon; 45.4 µM with HOP-62 NSCLC; 21.9 µM in the experiment on LOX IMVI melanoma. The GI50 in the experiment with OVCAR-3 ovarian is 21.4 µM; in the experiment on RPMI-8226 leukemia, 24.9 µM; in the experiment with UACC-62 melanoma it was 22 µM. Besides, the TGI is more than 100 µM with A549 NSCLC; 39.1 µM in the experiment with BT-549 breast; more than 100 µM with CAKI-1 renal; 51.9 µM in the experiment with HCT-15 colon; more than 100 µM with HOP-62 NSCLC; 47.2 µM in the experiment with LOX IMVI melanoma. Moreover, the TGI was determined as 42.7 µM in the experiment with OVCAR-3 ovarian, 48.6 µM with RPMI-8226 leukemia and 43.5 µM in the experiment with UACC-62 melanoma.
Turning to `COC(=O)NC/C=C\c1nc(CC/C=C\C(=O)OC2CC3CC(=O)O[C@H](/C=C/CC(C)C)C[C@H]4CCC(C)C(C[C@H](OC)CC(C2)O3)O4)co1` (stereo not given in full), the GI50 with A549 NSCLC was less than 0.01 µM; in the experiment on BT-549 breast, 0.016 µM; in the experiment on CAKI-1 renal, less than 0.01 µM; in the experiment with HOP-62 NSCLC, less than 0.01 µM; in the experiment with UACC-62 melanoma, 0.0635 µM. In addition, the TGI in the experiment with A549 NSCLC is more than 100 µM; in the experiment with BT-549 breast, 2.95 µM; in the experiment on CAKI-1 renal, 41.1 µM; in the experiment on HOP-62 NSCLC, 62.7 µM; with UACC-62 melanoma, more than 100 µM.
As for `COc1ccccc1C1=C2C(=O)N(C)C(c3ccccc3OC)=C2C(=O)N1C`, the TGI with A549 NSCLC is more than 100 µM; in the experiment on BT-549 breast, more than 100 µM; in the experiment with CAKI-1 renal, more than 100 µM; in the experiment on HCT-15 colon, more than 100 µM; in the experiment with HOP-62 NSCLC, 43.9 µM; in the experiment on LOX IMVI melanoma it was more than 100 µM. The TGI with OVCAR-3 ovarian and in the experiment with UACC-62 melanoma was more than 100 µM each time.
Consider `O=C1/C(=C/c2ccc(O)c([N+](=O)[O-])c2)CCC/C1=C\c1ccc(O)c([N+](=O)[O-])c1`, for which the GI50 in the experiment with A549 NSCLC was 25.5 µM; in the experiment on BT-549 breast it was 2.83 µM; with HCT-15 colon it was 9.77 µM; in the experiment on HOP-62 NSCLC, 25 µM; in the experiment with OVCAR-3 ovarian it was 2.54 µM; with RPMI-8226 leukemia, 10 µM. For the same compound, the GI50 in the experiment with UACC-62 melanoma was 14.1 µM. For the same compound, the TGI with A549 NSCLC was 32.4 µM and 91.7 µM; with BT-549 breast, 36.6 µM and 9.46 µM; in the experiment with CAKI-1 renal, 20.4 µM; in the experiment with HCT-15 colon, 36.5 µM and 37.2 µM; in the experiment on HOP-62 NSCLC, 28 µM and > 100 µM; in the experiment with LOX IMVI melanoma, 23.2 µM. Moreover, the TGI with OVCAR-3 ovarian is 17.1 µM and > 100 µM; with RPMI-8226 leukemia, 50 µM and 32.6 µM; with UACC-62 melanoma, 15.5 µM and 37.2 µM.
Take `CCCCCCCCCNCCCCCCCCC`: the GI50 in the experiment with A549 NSCLC is 2.04 µM; in the experiment on BT-549 breast, 1.93 µM; in the experiment on CAKI-1 renal, 1.49 µM; in the experiment on HCT-15 colon, 1.79 µM; in the experiment with HOP-62 NSCLC, 1.93 µM; in the experiment on LOX IMVI melanoma it was 1.61 µM. Besides, the GI50 in the experiment with OVCAR-3 ovarian is 1.93 µM; with RPMI-8226 leukemia it was 1.96 µM; in the experiment on UACC-62 melanoma, 1.74 µM. Moreover, the TGI in the experiment on A549 NSCLC was 4.08 µM; with BT-549 breast, 3.38 µM; with CAKI-1 renal, 3.09 µM; with HCT-15 colon, 3.47 µM; with HOP-62 NSCLC it was 3.38 µM; with LOX IMVI melanoma, 3.02 µM. For the same compound, the TGI in the experiment on OVCAR-3 ovarian worked out at 3.46 µM; in the experiment with RPMI-8226 leukemia, 4.18 µM; in the experiment with UACC-62 melanoma, 3.35 µM.
As to `Fc1ccc(Oc2nccc(-c3c(-c4ccc(F)cc4)ncn3C3CCNCC3)n2)cc1`, the GI50 was more than 25 µM with A549 NSCLC; more than 25 µM in the experiment on BT-549 breast; 20.5 µM in the experiment on CAKI-1 renal; more than 25 µM in the experiment on HCT-15 colon; more than 25 µM with HOP-62 NSCLC; more than 25 µM with LOX IMVI melanoma. The results for the GI50 with OVCAR-3 ovarian, with RPMI-8226 leukemia and in the experiment on UACC-62 melanoma were more than 25 µM, more than 25 µM and more than 20.8 µM, respectively. Besides, the TGI in the experiment on A549 NSCLC, in the experiment with BT-549 breast, in the experiment on CAKI-1 renal, with HCT-15 colon, with HOP-62 NSCLC and in the experiment with LOX IMVI melanoma was more than 25 µM throughout. In addition, the TGI in the experiment on OVCAR-3 ovarian, with RPMI-8226 leukemia and in the experiment with UACC-62 melanoma was more than 25 µM in each case.

Source of the values: PubChem BioAssay (NCI).
